Measurements from publication PMC5766581, “NF-κB inducing kinase is a therapeutic target for systemic lupus erythematosus” (Nature Communications, 2018).

Key:
NZB/W F1 mice = assay: rAdV-IFNα-accelerated NZB/W F1 lupus model, survival study; format: in vivo, mouse
Experimental: Age-matched (NZB x NZW) F1 mice were purchased from Jackson Laboratory. Fourteen to fifteen weeks old female NZB/W F1 mice were injected i.v. with 1.2 × 10^8 rAD5-CMV-IFNα (rAdV-IFNα) particles (Genentech) to accelerate disease[34],[69]. […] In efficacy studies, proteinuria and survival were tracked through day 84. A 4-week PD study was performed to measure cell subsets, serum Ig, chemokines, cytokines, and gene expression.
Kidneys were immersed in 10% neutral buffered formalin at ambient temperature for 24 h, then paraffin-embedded using routine methods. Four micron histologic sections were stained with Periodic acid–Schiff (PAS) for evaluation of glomerulonephritis and hematoxylin and eosin (H&E) for visual evaluation of interstitial inflammation by light microscopy. Scoring by the pathologist was performed in a blinded fashion. Glomerulonephritis severity scoring was on a 4-point semi-quantitative scale: “0” – normal or mild global lesions in <50% of glomeruli, “1”—global lesions in > 50% of glomeruli, <20% of which are severe (defined as >1 segment with <3 patent capillaries), “2”—global lesions in >50% of glomeruli, 20–80% of which are severe, and “3”— >80% of glomeruli with severe global lesions. Chronic pyelitis, cortical periarteritis, and tubulointerstitial nephritis severity was determined by blinded disease scoring. Severity scores for tubulointerstitial nephritis, periarteritis, and pyelitis were all on 4-point semiquantitative scales: “0”—no significant inflammation, “1”—sparse or focal inflammatory infiltrates, “2”—occasional moderately sized inflammatory infiltrates, and “3”—frequent large inflammatory infiltrates. Proteinuria measurements were done by dipstick (Multistix, Bayer Diagnostics). Protein concentration was assigned a proteinuria score with trace = […] = 1, 100 mg/dl = 2, >300 mg/dl = 4, and dead mice = 5.

[1] = system: 222 recombinant human kinases; assay: SelectScreen kinase panel, overall selectivity; format: biochemical; conditions: 1 μM
Experimental: The ability of NIK to catalyze the hydrolysis of adenosine-5′-triphosphate (ATP) was monitored using the Transcreener ADP (adenosine-5′-diphosphate) assay (Bell Brook Labs, Fitchburg, WI). Purified human NIK kinase domain (a.a. 340–694) (0.5 nM) or mouse NIK kinase domain (a.a. 329–675) (1 nM) derived from a baculovirus-infected insect cell expression system was incubated with test compounds for 0.5–2 h in 50 mM HEPES buffer (pH 7.2) containing 10 mM MgCl2, 2 mM dithiothreitol, 10 μM ATP, 0.01% Triton X-100, 0.1% gamma-globulins from bovine blood, 1% dimethylsulfoxide (DMSO), 7 μg/mL ADP antibody and 5 nM ADP-MR121 633 tracer. […] The tracer bound to the antibody was displaced by the ADP generated during the NIK reaction, which caused a decrease in fluorescence polarization that was measured by laser excitation at 633 nm with a Fluorescence Correlation Spectroscopy Plus reader (Evotec AG). Equilibrium dissociation constant (Ki) values for NIK inhibitors are calculated from plots of activity vs. inhibitor concentration using Morrison’s quadratic equation that accounts for the potential of tight binding, and by also applying the conversion factor that accounted for competitive inhibition and the concentration of substrate used in the assay relative to its Michaelis constant (Km). The Ki values with hPKD1 (PKCμ) were determined using the same assay conditions as for NIK. […]

CDK5/p25 = target: T1, CDK5/p25 (Homo sapiens, UniProt Q00535); assay: SelectScreen kinase panel; format: biochemical
T1 construct: purchased Invitrogen / ThermoFisher SelectScreen
T1 sequence (Q00535 whole entry): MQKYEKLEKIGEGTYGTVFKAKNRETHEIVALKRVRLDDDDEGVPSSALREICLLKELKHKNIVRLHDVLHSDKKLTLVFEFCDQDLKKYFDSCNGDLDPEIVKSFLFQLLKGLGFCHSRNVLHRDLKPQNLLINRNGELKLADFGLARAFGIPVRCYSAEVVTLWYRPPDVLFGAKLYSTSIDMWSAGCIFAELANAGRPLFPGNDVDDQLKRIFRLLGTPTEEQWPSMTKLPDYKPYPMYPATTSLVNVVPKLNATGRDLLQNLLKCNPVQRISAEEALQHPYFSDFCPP
T1 sequence (Q15078 99-307 partner limits assumed): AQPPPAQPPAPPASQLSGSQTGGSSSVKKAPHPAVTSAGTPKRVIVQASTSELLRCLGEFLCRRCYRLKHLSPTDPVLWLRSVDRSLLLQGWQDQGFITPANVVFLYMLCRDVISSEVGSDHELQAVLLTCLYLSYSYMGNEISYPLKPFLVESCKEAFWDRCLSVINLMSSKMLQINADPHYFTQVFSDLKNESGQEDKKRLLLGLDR

Hyl = target: T2, Hyl (Homo sapiens, UniProt P42679); assay: SelectScreen kinase panel; format: biochemical
T2 construct: purchased Invitrogen / ThermoFisher SelectScreen
T2 sequence (P42679 whole entry): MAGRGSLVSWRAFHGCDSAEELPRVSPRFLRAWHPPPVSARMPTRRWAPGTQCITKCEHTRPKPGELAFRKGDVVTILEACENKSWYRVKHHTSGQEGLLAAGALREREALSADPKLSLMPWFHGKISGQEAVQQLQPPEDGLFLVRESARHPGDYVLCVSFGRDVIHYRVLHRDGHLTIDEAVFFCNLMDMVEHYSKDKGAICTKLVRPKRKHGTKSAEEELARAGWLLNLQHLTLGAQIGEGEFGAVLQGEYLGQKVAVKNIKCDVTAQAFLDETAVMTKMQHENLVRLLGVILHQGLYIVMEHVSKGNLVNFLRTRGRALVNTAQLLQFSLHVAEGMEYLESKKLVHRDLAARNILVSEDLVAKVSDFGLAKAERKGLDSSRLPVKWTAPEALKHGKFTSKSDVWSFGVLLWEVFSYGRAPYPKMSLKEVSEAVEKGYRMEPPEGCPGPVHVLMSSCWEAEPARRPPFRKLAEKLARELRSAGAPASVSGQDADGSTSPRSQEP

human B cells [2] = assay: Human B cell anti-IgM proliferation assay; format: cell-based; conditions: Homo sapiens, B-cell; thymidine incorporation, day four
human B cells [3] = assay: BAFF B cell survival assay (Cell Titer Glo); format: cell-based
Experimental: Human B cells were isolated using Miltenyi Human B cell isolation kit following ficoll separation of buffy coats. […] Mouse B cells were isolated from mouse spleen using Miltenyi mouse B cell isolation kit II. Cells were plated in Co-star 96-well plates at either 50,000 cells/well for the survival assays or at 150,000 cells/well for the proliferation assays. Compounds diluted in DMSO (final DMSO assay concentration = 0.1%) were added to the cells. The cells were incubated with compound for one hour at 37 °C. Stimulus was then added to the plates and survival or proliferation was measured after four days. For the proliferation assays, cells were treated with either Anti-IgM (20 μg/mL) or rhCD40L (10 μg/mL; R&D) or anti-mouse CD40 (100 ng/mL). Proliferation was measured using thymidine incorporation on day four. For the BAFF survival assay, cells were treated with human or mouse rBAFF (R&D Systems) at 10 ng/ml followed by Cell Titer Glo (Promega) to measure survival on day four.

[4] = system: p52 processing in murine B cells; assay: p52 processing western blot in B cells; format: cell-based; conditions: mouse B cells
Experimental: (§1) p52/p100 and β-actin were monitored by western blot as described previously. Briefly, p52 processing was detected after 6 or 18 h of stimulation. Mouse and human RPTEC cells were stimulated with recombinant mouse or human TWEAK (100 ng/mL, R&D Systems). Primary B cells were isolated by negative selection (Miltenyi) from either mouse spleen or human whole blood. Human primary B cells were stimulated with either rhCD40L (10 μg/mL) or rhBAFF (400 ng/mL) (R&D Systems). Mouse primary B cells were stimulated with either anti-CD40 (10 μg/mL, BD Biosciences) or rmBAFF (400 ng/mL). After 6 or 18 h, whole cell extracts were generated using RIPA buffer (with protease and phosphatase inhibition), and approximately 10 μg of total protein was monitored for p52/p100 and β-Actin by western blot. HeLa cells (ATCC) were stimulated for 8 h with anti-LTβR agonist antibody and cytoplasmic and nuclear extracts were generated using kits purchase from Thermo Scientific and approximately […] of each extract was monitored for p52/p100, phospho-RelA, RelA, or β-Actin, Histone H3, or Lamin B1 controls. Uncropped western blots, as required by journal policies, are provided in Supplementary Fig. 13 and 14.

[5] = system: p52 processing in human B cells; assay: p52 processing western blot in B cells; format: cell-based
Experimental: as §1

COc1cc(C(N)=O)nc(-c2cccc(C#C[C@]3(O)CCN(C)C3=O)c2)c1 [NIK SMI1]
reduction of mortality (NZB/W F1 mice; 180 mg/kg BID P.O., 9 weeks): about 50%
inhibition of NIK at the time point of lowest exposure (NZB/W F1 mice; 180 mg/kg, 12 h after the prior dose, based on PK sampling): about 70%
proteinuria score (NZB/W F1 mice; 9 weeks of treatment, AUC day 19-84): statistically significant reduction
survival (NZB/W F1 mice; IFNα-accelerated NZB/W F1 mice): improved survival
off-target kinases inhibited to an extent >75% [1]: 3 out of 222
inhibition at 1 µM (CDK5/p25): 2.5%
inhibition at 1 µM (Hyl): 4.5%
IC50 (human B cells [2]): > 10000 nM
IC50 (human B cells [3]; Homo sapiens, B-cell, BAFF induced, mean ± SD): 189 nM
BAFF-driven survival of B cells in vitro (human B cells [3]; human B cells): completely inhibited
BAFF-induced and CD40-induced p52 processing [4]: significantly inhibited
BAFF-induced and CD40-induced p52 processing [5]: significantly inhibited
